Assay results from ChEMBL document CHEMBL1142143, “Library screen for inhibitors targeting norovirus binding to histo-blood group antigen receptors” (Antimicrob Agents Chemother, 2007).
Converted amounts (≈) assume the structure as drawn.

Columns and labels:
Norovirus [1] = assay: Inhibition of recombinant norovirus MOH binding to human HBGA A antigen by EIA; format: functional
[2] = Solubility of the compound; format: physicochemical
Norovirus [3] = assay: Inhibition of norovirus recombinant VA387 binding to human HBGA B antigen by EIA; format: functional
[4] = Cytotoxicity against HeLa cells by MTS assay; format: cell-based; details: human
Norovirus [5] = assay: Inhibition of recombinant norovirus Norwalk binding to human HBGA A antigen by EIA; format: functional
Norovirus [6] = assay: Inhibition of recombinant norovirus VA207 binding to human HBGA Le antigen by EIA; format: functional
Norovirus [7] = assay: Inhibition of norovirus VA387 binding to HBGA A type antigen in human saliva at 10.9 uM by EIA; format: functional
Norovirus [8] = assay: Inhibition of recombinant norovirus Norwalk binding to human HBGA H antigen by EIA; format: functional
Norovirus [9] = assay: Inhibition of recombinant norovirus VA387 binding to human HBGA H antigen by EIA; format: functional
Norovirus [10] = assay: Inhibition of recombinant norovirus MOH binding to human HBGA B antigen by EIA; format: functional
Norovirus [11] = assay: Inhibition of recombinant norovirus VA387 binding to human HBGA A antigen by EIA; format: functional
Norovirus [12] = assay: Inhibition of norovirus VA387 binding to HBGA A type antigen in human saliva at 2.2 uM by EIA; format: functional
Norovirus [13] = assay: Inhibition of norovirus VA387 binding to HBGA A type antigen in human saliva at 13.7 uM by EIA; format: functional
Norovirus [14] = assay: Inhibition of norovirus VA387 binding to HBGA A type antigen in human saliva at 11.7 uM by EIA; format: functional
Norovirus [15] = assay: Inhibition of norovirus VA387 binding to HBGA A type antigen in human saliva at 11.8 uM by EIA; format: functional
Norovirus [16] = assay: Inhibition of norovirus VA387 binding to HBGA A type antigen in human saliva at 9.3 uM by EIA; format: functional
Norovirus [17] = assay: Inhibition of norovirus VA387 binding to HBGA A type antigen in human saliva at 12.8 uM by EIA; format: functional
Norovirus [18] = assay: Inhibition of norovirus VA387 binding to HBGA A type antigen in human saliva at 13.6 uM by EIA; format: functional
Norovirus [19] = assay: Inhibition of norovirus VA387 binding to HBGA A type antigen in human saliva at 4.8 uM by EIA; format: functional
Norovirus [20] = assay: Inhibition of norovirus VA387 binding to HBGA A type antigen in human saliva at 9.1 uM by EIA; format: functional
Norovirus [21] = assay: Inhibition of norovirus VA387 binding to HBGA A type antigen in human saliva at 9.6 uM by EIA; format: functional
Norovirus [22] = assay: Inhibition of norovirus VA387 binding to HBGA A type antigen in human saliva at 8.1 uM by EIA; format: functional

SMILES | EC50 (Norovirus [1]) [µM] | solubility [2] [µM] | EC50 (Norovirus [3]) [µM] | EC50 (Norovirus [5]) [µM] | EC50 (Norovirus [6]) [µM] | EC50 (Norovirus [8]) [µM] | EC50 (Norovirus [9]) [µM] | EC50 (Norovirus [10]) [µM] | EC50 (Norovirus [11]) [µM] | CC50 [4] [µM] | further results
CCCOc1ccc(-c2cc(C(=O)N/N=C/c3ccc(OCC)cc3)[nH]n2)cc1 | > 100 | > 100 | > 100 | > 100 | > 100 | > 100 | > 100 | > 100 | 13.7 | 12.3 | inhibition at 13.7 µM (Norovirus [13]): 51.1%
Cc1ccc(NC(=O)CC(c2ccccc2)c2ccccc2)cc1C | > 100 | > 100 | > 100 | > 100 | > 100 | > 100 | 47.5 | > 100 | 11.7 | 40.3 | inhibition at 11.7 µM (Norovirus [14]): 51.4%
CC(C)OC(=O)CC(=O)CSc1nc(-c2ccc(F)cc2)cc(-c2cccs2)c1C#N | > 100 | 400 (≈ 182 µg/mL) | 7.9 | 35 | > 100 | 19.8 | 7.5 | > 100 | 11.8 | 220 | inhibition at 11.8 µM (Norovirus [15]): 50.9%
CCCCc1ccc(NC(=O)c2ccc(C)cc2)cc1 | > 100 | 400 (≈ 107 µg/mL) | 32.5 | 53 | > 100 | 47.8 | 28.2 | > 100 | 12.8 | 180 | inhibition at 12.8 µM (Norovirus [17]): 54.3%
Cc1cc(O)c(Sc2c(O)cc(C)cc2C(C)(C)c2ccccc2)c(C(C)(C)c2ccccc2)c1 | > 100 | 400 (≈ 193 µg/mL) | 49.5 | > 100 | > 100 | > 100 | 48.1 | > 100 | 13.6 | 70.6 | inhibition at 13.6 µM (Norovirus [18]): 48.9%
CCOC(=O)C1=C(C)OC(N)=C(C#N)C1c1ccc(OCc2ccc(C)cc2)c([N+](=O)[O-])c1 (stereo not drawn) | 16.5 | 400 (≈ 180 µg/mL) | 18.6 | 22.9 | > 100 | 24.5 | 11.9 | 13.3 | 4.8 | 78.6 | inhibition at 4.8 µM (Norovirus [19]): 61.1%
CCCc1ccc(OCc2ccc(C(=O)N/N=C/c3ccc(Cl)cc3O)o2)cc1 | > 100 | 400 (≈ 165 µg/mL) | 13.5 | 18.2 | > 100 | 36.3 | 7.2 | > 100 | 9.1 | 46.7 | inhibition at 9.1 µM (Norovirus [20]): 62.9%
Oc1ccc(/C=N/c2nccs2)c(O)c1 | > 100 | 400 (≈ 88.1 µg/mL) | 26 | > 100 | > 100 | > 100 | 7.6 | > 100 | 9.6 | 324 | inhibition at 9.6 µM (Norovirus [21]): 45.3%
C=C(SCCNC(=O)NCCCCCCNC(=O)NCCSc1ccccc1O)/C(C)=C\C | > 100 | 400 (≈ 198 µg/mL) | 13.1 | 14.1 | > 100 | 22.6 | 14.2 | > 100 | 8.1 | 113 | inhibition at 8.1 µM (Norovirus [22]): 59.3%

Continued, in another order:

EC50 (Norovirus [1]) [µM] | solubility [2] [µM] | EC50 (Norovirus [3]) [µM] | EC50 (Norovirus [5]) [µM] | EC50 (Norovirus [6]) [µM] | EC50 (Norovirus [8]) [µM] | EC50 (Norovirus [9]) [µM] | EC50 (Norovirus [10]) [µM] | EC50 (Norovirus [11]) [µM] | SMILES | CC50 [4] [µM] | further results
> 100 | 400 (≈ 140 µg/mL) | > 100 | > 100 | > 100 | > 100 | > 100 | > 100 | 10.9 | O=C(/C=C/c1ccc(-c2cc(Cl)cc(Cl)c2)o1)c1cccs1 | 157 | inhibition at 10.9 µM (Norovirus [7]): 49%
> 100 | 400 | 5.8 | 15.6 | > 100 | 18.9 | 6.8 | > 100 | 2.2 | CCC[n+]1cc(-c2ccccc2)nc(N2CCOCC2)n1.[I-] | 158 | inhibition at 2.2 µM (Norovirus [12]): 49.3%
> 100 | 400 (≈ 111 µg/mL) | 44.6 | > 100 | > 100 | > 100 | 41.1 | > 100 | 9.3 | O=CC(=O)c1ccc2c(c1)Cc1cc(C(=O)C=O)ccc1-2 | 52.7 | inhibition at 9.3 µM (Norovirus [16]): 53.8%
> 100 | 400 (≈ 265 µg/mL) | 35.3 | > 100 | > 100 | > 100 | 26.1 | > 100 | 12.8 | O=C(C(=O)c1ccc(C(=O)c2ccc(C(=O)C(=O)c3ccc(Sc4ccccc4)cc3)cc2)cc1)c1ccc(Sc2ccccc2)cc1 | 263 | inhibition at 12.8 µM (Norovirus [17]): 46.1%
